In patent US20240376097A1, “BCL-2 Inhibitor” (BeiGene Ltd., priority 2020, published 2024):
Read-outs that look alike come from different tables or passages of the source.

Tests used:
[1] = molecular target: recombinant human Bcl-2 D103Y protein (Homo sapiens (Human), UniProt P10415, D103Y); experiment: Bcl-2-D103Y Biochemical Assay (TR-FRET); assay type: binding; details: for IC50: TR-FRET, FITC labeled Bak peptide; for Ratio of Bcl-2 D103Y/Bcl-2 WT: ratio of IC50
Outline: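 Compounds titrated against the Bcl-2 D103Y–ligand interaction; inhibition derived from the TR-FRET emission ratio 490 nm/520 nm after 337 nm excitation. Four-parameter logistic fitting gave IC50.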

[2] = molecular target: Recombinant human Bcl-2 protein (Homo sapiens (Human), UniProt P10415); experiment: Bcl-2 TR-FRET Assay; assay type: binding
Outline: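 In pH 7.5 phosphate buffer containing NaCl, EDTA, Tween-20 and BSA, 0.05 nM Bcl-2 saw serially diluted compound for 0.5 h before 0.5 nM FITC-Bak peptide was added. Signal ratio at 520/490 nm after 1 h yielded IC50.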

[3] = molecular target: recombinant human Bcl-2-G101V protein (Homo sapiens (Human), UniProt P10415, G101V); experiment: Bcl-2-G101V TR-FRET Assay; assay type: binding; details: Bcl-2 G101V mutant, TR-FRET; read-out: Biochemical assay (IC50, nM) Bcl-2 G101V
Outline: (§1)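 Compounds were titrated at increasing concentrations against the Bcl-2-G101V–ligand interaction. TR-FRET signals were then read (ex 337 nm; em 490/520 nm). Percent inhibition was derived from the 490-to-520 nm ratio, and IC50 from a four-parameter logistic equation.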

[4] = tested on: recombinant human Bcl-2-G101V protein; experiment: Bcl-2-G101V TR-FRET Assay; assay type: binding; details: ratio of biochemical IC50 Bcl-2 G101V / Bcl-2 WT
Outline: as §1

[5] = tested on: BCL-2 G101V knock-in cell line H96 (derive from RS4;11); experiment: Bcl 2-G101V Knock-In RS4;11 Cell Proliferation Assay; assay type: cell-based; details: Homo sapiens, RS4;11 Bcl-2 G101V knock-in clone H96, 48 hrs, CellTiter-GLO, read-out: Cellular proliferation assay (IC50, nM) RS4
Outline: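 CellTiter-Glo luminescence after 48 h, 37 °C compound treatment (10 concentrations, maximum 1 μM or 10 μM) gave mean IC50 values. Cells were 50,000 per well of H96, a BCL2-G101V knock-in single clone derived from RS4;11 by Cas9 editing.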

[6] = tested on: RS4;11 (BCL-2 dependent acute lymphoblastic leukemia cell line); experiment: RS4;11 Cell Proliferation Assay; assay type: cell-based; details: Homo sapiens, RS4-11, RS4;11 cells, read-out: Cellular proliferation assay (IC50, nM) RS4
Outline: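 Viability measured via CellTiter-Glo luminescence after a 48 h, 37 °C exposure to compounds (10 points, highest 1 μM). Seeding was 50,000 RS4;11 cells per well in 10% FBS RPMI-1640; IC50 given as mean.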

[7] = Bcl-2 wild type, TR-FRET, read-out: Biochemical assay (IC50, nM) Bcl-2 WT
[8] = wild type Bcl-2, unit inferred, read-out: Bcl-2 WT

SMILES	IC50 [1] [nM]	Ratio of Bcl-2 D103Y/Bcl-2 WT [1]	IC50 [2, 7] [nM]	IC50 [2, 8] [nM]	IC50 [3] [nM]	Ratio of Bcl-2 G101V/WT [4]	IC50 [5] [nM]	IC50 [6] [nM]
COc1cc(CN2CCN(C3CC4(C3)CN(c3ccc(C(=O)NS(=O)(=O)c5ccc(NC[C@H]6CC[C@](C)(O)CC6)c([N+](=O)[O-])c5)c(Oc5cnc6[nH]cc(F)c6c5)c3)C4)[C@H](c3ccccc3C(C)C)C2)cc2c1OC(C)(C)CC2 [Example 337, 2-((3-fluoro-1H-pyrrolo[2,3-b]pyridin-5-yl)oxy)-N-((4-((((1r,4r)-4-hydroxy-4-methylcyclohexyl)methyl)amino)-3-nitrophenyl)sulfonyl)-4-(6-((R)-2-(2-isopropylphenyl)-4-((8-methoxy-2,2-dimethylchroman-6-yl)methyl)piperazin-1-yl)-2-azaspiro[3.3]heptan-2-yl)benzamide]	0.39	3.2	0.12	0.12	0.37	3	0.63	0.18
CCOc1cc(CN2CCN(C3CC4(CCN(c5ccc(C(=O)NS(=O)(=O)c6ccc(NC[C@H]7CC[C@](C)(O)CC7)c([N+](=O)[O-])c6)c(Oc6cnc7[nH]ccc7c6)c5)CC4)C3)C(c3ccccc3C(C)C)C2)ccc1OC (some centres unmarked) [Example 124, 2-((1H-pyrrolo[2,3-b]pyridin-5-yl)oxy)-4-(2-(4-(3-ethoxy-4-methoxybenzyl)-2-(2-isopropylphenyl)piperazin-1-yl)-7-azaspiro[3.5]nonan-7-yl)-N-((4-((((1r,4r)-4-hydroxy-4-methylcyclohexyl)methyl)amino)-3-nitrophenyl)sulfonyl)benzamide]	0.21	1.4	0.15	0.15	0.51	3.4	1.2	0.24
[2H]C([2H])([2H])Oc1cc(CN2CCN(C3CC4(C3)CN(c3ccc(C(=O)NS(=O)(=O)c5ccc(NC[C@H]6CC[C@](C)(O)CC6)c([N+](=O)[O-])c5)c(Oc5cnc6[nH]cc(F)c6c5)c3)C4)[C@H](c3ccccc3C(C)C)C2)cc2ccoc12 [Example 322, 2-((3-fluoro-1H-pyrrolo[2,3-b]pyridin-5-yl)oxy)-N-((4-((((1r,4r)-4-hydroxy-4-methylcyclohexyl)methyl)amino)-3-nitrophenyl)sulfonyl)-4-(6-((R)-2-(2-isopropylphenyl)-4-((7-(methoxy-d3)benzofuran-5-yl)methyl)piperazin-1-yl)-2-azaspiro[3.3]heptan-2-yl)benzamide]	0.36	1.4	0.25	0.25	0.72	2.9	0.32	0.18
CC(C)c1ccccc1C1CN(Cc2cccc3c2OCCCO3)CCN1C1CC2(CCN(c3ccc(C(=O)NS(=O)(=O)c4ccc(NC[C@H]5CC[C@](C)(O)CC5)c([N+](=O)[O-])c4)c(Oc4cnc5[nH]ccc5c4)c3)CC2)C1 (some centres unmarked) [Example 107, 2-((1H-pyrrolo[2,3-b]pyridin-5-yl)oxy)-4-(2-(4-((3,4-dihydro-2H-benzo[b][1,4]dioxepin-6-yl)methyl)-2-(2-isopropylphenyl)piperazin-1-yl)-7-azaspiro[3.5]nonan-7-yl)-N-((4-((((1r,4r)-4-hydroxy-4-methylcyclohexyl)methyl)amino)-3-nitrophenyl)sulfonyl)benzamide]	0.31	2.8	0.11	0.11	0.56	5.1	1.77	0.33
COc1ccc(CN2CCN(C3CC4(CCN(c5ccc(C(=O)NS(=O)(=O)c6ccc(NC[C@H]7CC[C@](C)(O)CC7)c([N+](=O)[O-])c6)c(Oc6cnc7[nH]ccc7c6)c5)CC4)C3)C(c3ccccc3C(C)C)C2)cc1F (some centres unmarked) [Example 134, 2-((1H-pyrrolo[2,3-b]pyridin-5-yl)oxy)-4-(2-(4-(3-fluoro-4-methoxybenzyl)-2-(2-isopropylphenyl)piperazin-1-yl)-7-azaspiro[3.5]nonan-7-yl)-N-((4-((((1r,4r)-4-hydroxy-4-methylcyclohexyl)methyl)amino)-3-nitrophenyl)sulfonyl)benzamide]	0.67	1.9	0.35	0.35	1.3	3.8	3.1	0.4
COc1ccc(CN2CCN(C3CC4(CCN(c5ccc(C(=O)NS(=O)(=O)c6ccc(NC[C@H]7CC[C@](C)(O)CC7)c([N+](=O)[O-])c6)c(Oc6cnc7[nH]ccc7c6)c5)CC4)C3)[C@H](c3ccccc3C(C)C)C2)cn1 [Example 185, 2-((1H-pyrrolo[2,3-b]pyridin-5-yl)oxy)-N-((4-((((1r,4r)-4-hydroxy-4-methylcyclohexyl)methyl)amino)-3-nitrophenyl)sulfonyl)-4-(2-((R)-2-(2-isopropylphenyl)-4-((6-methoxypyridin-3-yl)methyl)piperazin-1-yl)-7-azaspiro[3.5]nonan-7-yl)benzamide]	0.05	1.6	0.031	0.031	0.14	4.5	0.6	0.14
C#Cc1ccc(CN2CCN(C3CC4(CCN(c5ccc(C(=O)NS(=O)(=O)c6ccc(NC[C@H]7CC[C@](C)(O)CC7)c([N+](=O)[O-])c6)c(Oc6cnc7[nH]ccc7c6)c5)CC4)C3)C(c3ccccc3C(C)C)C2)cc1OC (some centres unmarked) [Example 162]	0.61	1.6	0.38	0.38	1.5	3.8	2.04	0.373
COc1ccc(CN2CCN(C3CC4(CCN(c5ccc(C(=O)NS(=O)(=O)c6ccc(NC[C@H]7CC[C@](C)(O)CC7)c([N+](=O)[O-])c6)c(Oc6cnc7[nH]ccc7c6)c5)CC4)C3)C(c3ccccc3C(C)C)C2)cc1C#N (some centres unmarked) [Example 132, 2-((1H-pyrrolo[2,3-b]pyridin-5-yl)oxy)-4-(2-(4-(3-cyano-4-methoxybenzyl)-2-(2-isopropylphenyl)piperazin-1-yl)-7-azaspiro[3.5]nonan-7-yl)-N-((4-((((1r,4r)-4-hydroxy-4-methylcyclohexyl)methyl)amino)-3-nitrophenyl)sulfonyl)benzamide]	0.47	1.3	0.26	0.26	0.92	3.5	2.05	0.31
COc1cc(CN2CCN(C3CC4(C3)CN(c3ccc(C(=O)NS(=O)(=O)c5ccc(NC[C@H]6CC[C@](C)(O)CC6)c([N+](=O)[O-])c5)c(Oc5cnc6[nH]ccc6c5)c3)C4)[C@H](c3ccccc3C(C)C)C2)cc2cc(C)oc12 [Example 339, 2-((1H-pyrrolo[2,3-b]pyridin-5-yl)oxy)-N-((4-((((1r,4r)-4-hydroxy-4-methylcyclohexyl)methyl)amino)-3-nitrophenyl)sulfonyl)-4-(6-((R)-2-(2-isopropylphenyl)-4-((7-methoxy-2-methylbenzofuran-5-yl)methyl)piperazin-1-yl)-2-azaspiro[3.3]heptan-2-yl) benzamide]	0.71	2.5	0.28	0.28	0.97	3.5	0.52	0.19
COc1cc(CN2CCN(C3CC4(C3)CN(c3ccc(C(=O)NS(=O)(=O)c5ccc(NC[C@H]6CC[C@](C)(O)CC6)c([N+](=O)[O-])c5)c(Oc5cnc6[nH]cc(F)c6c5)c3)C4)[C@H](c3ccccc3C(C)C)C2)ccc1NC(C)C [Example 360]	0.31	1.4	0.23	0.23	0.5	2.2	0.11	0.05
